Experimental data from patent publication US20250327074A1 (SHAOXING INSTITUTE, ZHEJIANG UNIVERSITY, priority 2024, published 2025).

Legend:
Assay type in all cases: cell-based
[1] = system: Ser-tRNACGA knockout HEK293T cell lines 1A8, 2A3, 3A12, 4C23; assay: LC-MS TCG recoding efficiency in Ser-tRNACGA knockout cell lines; settings: for efficiency in recoding TCG codon at position 151 of EGFP: single-copy recoding tRNA
From the text: Four sgRNAs targeting Ser-tRNACGA were designed (Table 6). CRISPR/Cas9 was used to generate knockout polyclonal populations, followed by FACS sorting to isolate monoclonal lines. Sequencing confirmed successful editing in four knockout strains: 1A8, 2A3, 3A12, and 4C23 (FIG. 6).
This example evaluates the TCG codon recoding capability of the knockout cell lines using the TetRS/PylTCGA recoding system as a model.

[2] = system: rare codon in EGFP reporter, HEK293T cells; assay: LC-MS recoding efficiency of rare codons in EGFP reporter; settings: TetRS/PylTyyy, 200 μM TetBu, HEK293T
Method: (§1) The recoding translation system and the rare codon-bearing POI were co-transfected into HEK293T cells. Then, two methods were used to calculate the ncAA recoding rate: 1) LC-MS analysis: the protein of the POI mixture, including the fraction incorporated with ncAA and the fraction with NAA at rare codons, was purified by Ni2+-NTA beads and subjected to LC-MS analysis. The ncAA recoding rate was determined by the intensity of two fractions quantified by LC-MS. 2) TCO-PEG5000 mass tag labeling analysis: this method was suitable for quantifying the TetBu recoding rate in this work. When the protein mixture was incubated with TCO-PEG5000 mass tag, the protein incorporated with TetBu would be labeled by this mass tag and migrated much slower in SDS-PAGE.
(§2) When the recoding system (TetRS/PylTyyy) is co-expressed with a target protein carrying the recoding codon in HEK293T, the recoding codon can be translated into a natural amino acid by endogenous tRNA (Dec-tRNA), or recoding into TetBu by the engineered tRNA (Rec-tRNA), producing a mixture of protein byproducts (with a single-site mutation) and the target protein containing TetBu. Based on this, two methods were established to assess sense codon recoding efficiency: a) Liquid chromatography-mass spectrometry (LC-MS) for differentiates proteins based on molecular weight differences, and b) TCO-PEG5000 macromolecular label target proteins containing TetBu, which increases their molecular weight by 5 kDa. The shift in protein bands is detected via immunoblotting (FIG. 2).
(1) Transfection: Plasmids encoding the TetBu/PylTyyy recoding system (where xxx represents different codons and yyy represents different anticodons) were co-transfected with the plasmid mCherry-T2A-EGFP^N149XXX-6×His at a 1:1 (g:g) ratio. For a 10 cm dish, the total transfection mixture contained 20 μg DNA+[…] Lipofectamine 2000+2 mL Opti-MEM.
(2) Protein expression and purification: After 6 hours, the medium was replaced with fresh DMEM containing 200 μM TetBu for 40 hours to induce protein expression. Cells were lysed in 1 mL Modified RIPA Buffer, and the supernatant was purified using Ni-NTA beads.
(3) LC-MS analysis of recoding efficiency:Using a Waters Xevo G2-XS TOF Mass Spectrometer, the recoding efficiency of rare codons (CTA, GTA, CGT, CCG, GCG, ACG, and TCG) at the EGFP149 site was evaluated.
(2) Cell transfection and protein expression purification: HEK293T cells were seeded in 10 cm culture dishes and transfected at 60-70% confluency. For each transfection, […] of plasmid carrying mCherry-T2A-EGFPY151TCG-6×His was co-transfected with one of the following recoding system plasmids: chPhe_AcFRS/12×(U6-chPheTCGA), EcTyr_OmeYRS/12×(U6-EcTyrTCGA), or EcLeu_OmeYRS/12×(U6-EcLeuTCGA). After 6 hours, the medium was replaced with serine/glycine-free DMEM/F12 containing 500 μM of the respective unnatural amino acid. Following protein expression and purification, LC-MS was used to determine TCG recoding efficiency at position 151 of EGFP. Detailed transfection and purification protocols following section 2.2.1.2, with cell culture conditions in serine-free medium as described in Example 2.

[3] = system: HEK293T cells proteome; assay: Proteome background incorporation, TCO-biotin streptavidin dot blot; settings: CTA and TCG codon groups among 7 rare codons; 200 μM TetBu
From the text: When the TetRS/PylTyyy recoding system is expressed in HEK293T, it recodes endogenous genomic codons into TetBu, generating a modified proteome containing TetBu. The IEDDA reaction between TetBu and trans-cyclooctene (TCO) enables biotinylation of TetBu-containing proteins via TCO-Biotin. Streptavidin dot blot detects biotin signals, where signal intensity correlates with TetBu incorporation levels (FIG. 3, right).
1.3.2 Screening of Rare Codons with Low Background Incorporation • (1) Intracellular expression of the recoding system: Plasmids encoding TetBu/PylTyyy (yyy=anticodons for TCG, ACG, GCG, CCG, CGT, GTA, CTA) were transfected using Lipofectamine 2000. After 6 hours, cells were treated with fresh DMEM±200 μM TetBu for 40 hours. Cells were lysed in 100 μL Modified RIPA Buffer to obtain whole-cell lysates.
The reaction system was prepared as described in Table 3. Reaction products were mixed with 7 μL bromophenol blue-free 4×SDS loading buffer, boiled at 100° C. for 10 min, and analyzed via streptavidin dot blot.
Samples were spotted onto a nitrocellulose membrane and air-dried at room temperature for 15 min. The membrane was washed with 10 mL TBST (80 rpm, 5 min) three times, discarding the supernatant each time. Blocking was performed with 10 mL TBST containing 5% non-fat milk for 1 h, followed by three additional TBST washes (10 mL, 80 rpm, 5 min each). […]

[4] = system: IL-1B, IL-2, IL-4, IL-6 bearing TCG codon, HEK293T cells; assay: TCO-PEG5000 mass tag labeling recoding efficiency in interleukin proteins; settings: TetRS/PylTCGA, 200 μM TetBu, serine/glycine-free
Method: as §1, §2
The recoding system and plasmids containing the TCG codon for the cytokines were co-transfected into HEK293T cells. Six hours post-transfection, the medium was replaced with serine/glycine-free DMEM/F12 medium supplemented with 200 μM TetBu. After 40 hours of protein expression, 500 μL of Modified RIPA lysis buffer was added to each well to lyse the cells. The TCO-PEG5000 labeling method was used to assess the recoding efficiency.

**Q.** With `CCCCc1nnc(-c2cccc(C[C@H](N)C(=O)O)c2)nn1` [TetBu, (S)-2-amino-3-(3-(6-butyl-1,2,4,5-tetrazin-3-yl)phenyl)propanoic acid] as the molecule, how does the “efficiency in recoding TCG codon at position 151 of EGFP” value (“efficiency in recoding TCG codon” for short) ([1]; knockout cell line 1A8) read?
**A.** 61%

**Q.** And the “efficiency in recoding TCG codon” value ([1]; knockout cell line 2A3)?
**A.** 51%

**Q.** What about the “efficiency in recoding TCG codon” value ([1]; knockout cell line 3A12) of the same molecule?
**A.** 58%

**Q.** And the “efficiency in recoding TCG codon” value ([1]; knockout cell line 4C23)?
**A.** 68%

**Q.** What about the “improvement of TCG recoding compared to HEK293T cells” value ([1]; strain 4C23) of the same molecule?
**A.** 1.4 fold

**Q.** What about the recoding efficiency ([2]; ACG codon at EGFP149 site) of the same molecule?
**A.** 7.1%

**Q.** And the recoding efficiency ([2]; TCG codon at EGFP149 site)?
**A.** 8.5%

**Q.** What about the “proteome-wide background TetBu incorporation (biotin signal intensity)” value [3] of the same molecule?
**A.** lowest biotin signal intensity

**Q.** And the TetBu recoding efficiency ([4]; position 62 of IL-2)?
**A.** 80.8%

**Q.** What about the TetBu recoding efficiency ([4]; position 87 of IL-6) of the same molecule?
**A.** 83.9%

**Q.** What about the TetBu recoding efficiency ([4]; position 121 of IL-4) of the same molecule?
**A.** 99.3%

**Q.** And the TetBu recoding efficiency ([4]; position 205 of IL-1B)?
**A.** 78.10%
